Entries after “also recorded” stand apart in the source; their conditions may differ.

Common to all, as to type: cell-based
Assay [1] concerns mouse-derived HSCs. The experiment in a line: Expansion of mouse-derived HSCs in serum-free medium containing PVA. The conditions noted are these: serum-free medium containing PVA and T2. As to the method:
Mouse-derived HSCs were cultured in serum-free medium containing PVA and T2 instead of the serum-containing T2 medium described above. HSC expansion was also promoted in this serum-free medium. Furthermore, HSC differentiation was suppressed. At this time, the optimal concentration of T2 was 0.1 µM.

The test system of the next assay is EPCR+HSC. The assay can be described thus: 4-week culture of hematopoietic cells in the presence of T2. An excerpt: The control group received only DMSO. Differentiated blood cells are c-Kit-negative cells. MPP3, MPP2, and MPP1 are multipotent progenitor cells (MPPs) referred to as hematopoietic progenitor cells. EPCR-HSC are EPCR-negative HSCs. EPCR-HSC are slightly less functional than EPCR-positive HSCs. EPCR+HSC are EPCR-positive HSCs. EPCR+HSC represent the most undifferentiated population among HSCs.

Another assay has as its system mouse HSCs. The assay can be described thus: Short-term culture of HSCs (one week) with thyroid hormones and metabolites. The conditions noted are these: 10 µM; for number of HSCs after culture (total cell count per colony): 300 mouse HSCs cultured one week in SF-O3, SCF 100ng/mL, TPO 100ng/mL, vs control (Ctl), Figure 1; for CD48 expression (mean fluorescence intensity of CD48 staining per colony): one week culture, CD48 is a marker for cells differentiating from HSCs, Figure 2. On the procedure: Method: A population containing mouse hematopoietic stem cells was processed using a cell sorter to enrich cells with the surface phenotype CD150^+ CD48^- EPCR^+ Lineage^- Sca-1^+c-Kit^+. These purified cells are hereinafter referred to as mouse HSCs. 300 mouse HSCs were cultured for one week at 37°C under 5% CO2 in medium containing SF-O3 (Sanko Junyaku), SCF 100ng/mL, and TPO 100ng/mL. The number of cells in each colony formed after culture was counted. All subsequent culture experiments were performed at 37°C under 5% CO2. The concentration of each thyroid hormone and its metabolites was set to 10 µM. The control group (Ctl) medium contained no added thyroid hormones or metabolites.
Results: The groups treated with thyroid hormones and their metabolites were compared to the control group (Ctl). […] Circles represent counts per colony. Error bars indicate standard deviation. "Ctl" on the x-axis denotes the absence of added thyroid hormones and their metabolites. […] Circles represent measured values per colony. Error bars indicate standard deviation.
In Figures 1 and 2, T4 denotes thyroxine (T4). T3 denotes 3,3',5-triiodo-L-thyronine (T3). rT3 denotes 3,3',5'-triiodothyronine (rT3). 3,3'T2 denotes 3,3'-diiodo-L-thyronine (3,3'-T2). 3,5T2 denotes 3,5-diiodo-L-thyronine (3,5-T2). 3',5'T2 denotes 3',5'-diiodo-L-thyronine (3',5'-T2). T1AA denotes 3-iodothyroacetic acid (3-T1AA). T1AM denotes 3-iodothyronamine (3-T1AM). L-T0 denotes L-thyronine (T0). DL-T0 denotes the racemic form of thyronine.

Assay [2] has as its system EPCR-positive HSCs (EPCR+HSCs). The assay can be described thus: Culture of HSCs in the presence of carboxylic acid derivatives of thyronine. The following applies: compared to the control group treated with DMSO alone; Figure 9. From the text:
T3 represents 3,3',5-triiodo-L-thyronine (T3). T3 acetic acid denotes 3,3',5-triiodo-L-thyroacetic acid (T3AA). 35T2 denotes 3,5-diiodo-L-thyronine (3,5-T2). 35T2 acetic acid denotes 3,5-diiodo-L-thyroacetic acid (3,5-T2AA). 33T2 denotes 3,3'-diiodo-L-thyronine (3,3'-T2).

For assay [3], the system named is mouse-derived HSCs. The experiment in a line: Culture of HSCs in medium containing a thyroid hormone derivative. The following applies: medium containing sobetirome. An excerpt:
Additionally, HSC differentiation was suppressed.

For `N[C@@H](Cc1ccc(Oc2ccc(O)c(I)c2)c(I)c1)C(=O)O` [T2, 3,3'-Diiodo-L-thyronine], in the assay on mouse-derived HSCs [1], the HSC differentiation result is on record as “suppressed”, the HSC expansion entry is recorded as “promoted” and the “optimal concentration of T2” value is given as 0.1 µM. Further, the “expansion factor of EPCR+HSC” value with EPCR+HSC (EPCR+HSC cultured 4 weeks in the presence of T2) is reported as 204 fold. Moreover, the “EPCR+HSC expansion” value in the assay with EPCR+HSC (EPCR+HSC cultured 4 weeks in the presence of T2, vs control group (DMSO), Figure 10) is recorded as “expanded more than in the control group”. In the assay on EPCR+HSC (EPCR+HSC cultured 4 weeks in the presence of T2, Figure 10), the “expansion of other cells derived from EPCR+HSC (EPCR-HSC, MPP3, MPP2, MPP1, differentiated blood cells)” value was “expanded”.

As to `N[C@@H](Cc1cc(I)c(Oc2ccc(O)c(I)c2)c(I)c1)C(=O)O` [T3, 3,3',5-triiodo-L-thyronine], in the assay on mouse HSCs, the “number of HSCs after culture (total cell count per colony)” value (from here on “number … (total cell count per colony)”) is reported as “high” and the “CD48 expression (mean fluorescence intensity of CD48 staining per colony)” value is recorded as “maintained at low levels”. Further, the “proportion of EPCR+HSCs after culturing HSCs” value (“proportion of EPCR+HSCs” below) in assay [2] is “increased”.

Take `N[C@@H](Cc1ccc(Oc2cc(I)c(O)c(I)c2)c(I)c1)C(=O)O` [rT3, 3,3',5'-Triiodothyronine]: in the assay on mouse HSCs, the “number … (total cell count per colony)” value is reported as “high” and the “CD48 expression (mean fluorescence intensity of CD48 staining per colony)” value is on record as “maintained at low levels”.

`N[C@@H](Cc1cc(I)c(Oc2ccc(O)cc2)c(I)c1)C(=O)O` [3,5-T2, 3,5-Diiodo-L-thyronine]: in the assay with mouse HSCs, the “number … (total cell count per colony)” value is “high” and the “CD48 expression (mean fluorescence intensity of CD48 staining per colony)” value is reported as “maintained at low levels”. The “proportion of EPCR+HSCs” value in assay [2] is “increased”.

Turning to `N[C@@H](Cc1ccc(Oc2ccc(O)c(I)c2)c(I)c1)C(=O)O` [3,3'-T2, 3,3'-Diiodo-L-thyronine], in the assay on mouse HSCs, the “number … (total cell count per colony)” value was “high” and the “CD48 expression (mean fluorescence intensity of CD48 staining per colony)” value was “maintained at low levels; also recorded: most strongly suppressed CD48 expression”. Moreover, the “proportion of EPCR+HSCs” value in assay [2] is given as “increased”.

For the compound `O=C(O)Cc1cc(I)c(Oc2ccc(O)cc2)c(I)c1` [35T2 acetic acid, 3,5-Diiodo-L-thyroacetic acid], the “proportion of EPCR+HSCs” value in assay [2] is “increased”.

As to `Cc1cc(OCC(=O)O)cc(C)c1Cc1ccc(O)c(C(C)C)c1` [sobetirome, Sobetirome], in the assay with mouse-derived HSCs [3], the HSC differentiation result is “suppressed” and the HSC expansion entry is listed as “promoted HSC expansion”.

As to `O=C(O)Cc1ccc(Oc2ccc(O)cc2)c(I)c1` [T1AA, 3-Iodo-L-thyroacetic acid], in the assay with mouse HSCs, the “number … (total cell count per colony)” value is listed as “tendency to promote cell proliferation” and the “CD48 expression (mean fluorescence intensity of CD48 staining per colony)” value is recorded as “tendency to reduce CD48 expression”.

Turning to `N[C@@H](Cc1cc(I)c(Oc2cc(I)c(O)c(I)c2)c(I)c1)C(=O)O` [T4, thyroxine], in the assay with mouse HSCs, the “number … (total cell count per colony)” value is recorded as “high” and the “CD48 expression (mean fluorescence intensity of CD48 staining per colony)” value is given as “maintained at low levels”.
